From patent publication US10406233B2, “Telodendrimers with enhanced drug delivery” (priority 2011, dated 2019)

How the values were obtained:
[1] = tested on: Subcutaneous Raji lymphoma xenograft; experiment: In vivo anti-tumor efficacy study; parameters: species or system nude mice; conditions: 10 mg/kg DOX i.v. days 0, 4, 8
Experimental: Lymphoma xenograft mouse models were established by subcutaneously injecting 1×10^7 Raji lymphoma cells in a 100 μL of mixture of PBS and Matrigel (1:1 v/v) at the right flank in female nude mice.

[2] = Toxicity monitoring in the therapeutic study (body weight, blood cell counts, serum chemistry, heart histology); assay type: in vivo, Raji tumor bearing mice
Experimental: Subcutaneous Raji lymphoma xenograft mouse model was used to evaluate the therapeutic efficacy of different formulations of DOX. When tumor volume reached 150-300 mm^3, mice were intravenously administrated with PBS, DOX.HCl, Doxil®, or DOX-PEG^5k-CA4^αRh4^ε at the dose of 10 mg/kg DOX equivalent (MTD of free DOX) (n=5-8). The treatment was given every four day on days 0, 4 and 8 for total three doses. Tumor sizes were measured with a digital caliper twice per week. Tumor volume was calculated by the formula (L×W^2)/2, where L is the longest, and W is the shortest in tumor diameters (mm). To compare between groups, relative tumor volume (RTV) was calculated at each measurement time point (where RTV equals the tumor volume at given time point divided by the tumor volume prior to initial treatment). For humane reasons, animals were sacrificed when the implanted tumor volume reached 2000 mm^3, which was considered as the end point of survival data. At day 7 after the last dosage, blood samples were obtained from all the mice for the measurement of blood cell counts, hepatic or renal function tests (ALT, AST, and BUN), and serum enzyme markers of cardiotoxicity including creatine kinase (CK) and lactate dehydrogenase (LDH). One mouse from each group was also sacrificed, and its heart was submitted for histopathology evaluation.

[3] = Maximum tolerated dose (MTD) study; conditions: mice, intravenous
[4] = day 7 after last dosage, free DOX vs untreated mice, nanoformulations vs free DOX (P<0.05)

## COc1cccc2c1C(=O)c1c(O)c3c(c(O)c1C2=O)C[C@@](O)(C(=O)CO)C[C@@H]3O[C@H]1C[C@H](N)[C@H](O)[C@H](C)O1.Cl [free DOX, Doxorubicin hydrochloride]
[1]
  median survival time: 32 days
[1]; by day 28
  median RTV (relative tumor volume): 9.9
[2]; 10 mg/kg DOX i.v. days 0, 4, 8
  body weight loss: significantly higher
[2]; [4]
  serum level of CK: significantly increased
  serum level of LDH: significantly increased
[2]; day 7 after the last injection, compared to PBS control
  WBC count: significantly decreased
[2]; on day 16
  death: one death
[3]
  MTD: 10 mg/kg
